Source: ChEMBL document CHEMBL1122862, “Synthesis and antibacterial activity of 2,2'-dithiobis(benzamide) derivatives against Mycobacterium species” (1985)
Converted amounts (≈) assume the structure as drawn.

Key:
Assay type in all cases: functional
[1] = system: Mycobacterium tuberculosis; assay: Antibacterial activity against Mycobacterium tuberculosis H37Rv.
[2] = system: Mycobacterium intracellulare; assay: Antibacterial activity against Mycobacterium intracellular.
Mycobacterium kansasii = assay: Antibacterial activity against Mycobacterium kansasii

Structure (SMILES)	MIC [1] [µg/mL]	MIC [2] [µg/mL]	MIC (Mycobacterium kansasii) [µg/mL]
Cl.Cl.O=C(c1ccccc1SSc1ccccc1C(=O)N1CCN(Cc2ccccc2)CC1)N1CCN(Cc2ccccc2)CC1	25	> 100	50
O=C(Nc1ccc(S(=O)(=O)Nc2nc3ccccc3s2)cc1)c1ccccc1SSc1ccccc1C(=O)Nc1ccc(S(=O)(=O)Nc2nc3ccccc3s2)cc1	100 (≈ 113 µM)	100 (≈ 113 µM)	50 (≈ 56.7 µM)
O=C(Nc1cc2ccccc2cc1O)c1ccccc1SSc1ccccc1C(=O)Nc1cc2ccccc2cc1O	12.5 (≈ 21.2 µM)	50 (≈ 84.9 µM)	25 (≈ 42.5 µM)
CCCCCCCC(=O)OCCCNC(=O)c1ccccc1SSc1ccccc1C(=O)NCCCOC(=O)CCCCCCC	0.39 (≈ 0.58 µM)	12.5 (≈ 18.6 µM)	0.78 (≈ 1.16 µM)
CCc1cc(CC)cc(NC(=O)c2ccccc2SSc2ccccc2C(=O)Nc2cc(CC)cc(CC)c2)c1	> 100	> 100	> 100
CCC(CO)(CO)NC(=O)c1ccccc1SSc1ccccc1C(=O)NC(CC)(CO)CO	25 (≈ 49.1 µM)	100 (≈ 197 µM)	25 (≈ 49.1 µM)
CCC(O)CNC(=O)c1ccccc1SSc1ccccc1C(=O)NCC(O)CC (centres undefined)	12.5 (≈ 27.9 µM)	12.5 (≈ 27.9 µM)	12.5 (≈ 27.9 µM)
CCCCCCCCCCCC(=O)OCCCNC(=O)c1ccccc1SSc1ccccc1C(=O)NCCCOC(=O)CCCCCCCCCCC	0.78 (≈ 0.993 µM)	> 100	12.5 (≈ 15.9 µM)
CC(CCc1ccccc1)NC(=O)c1ccccc1SSc1ccccc1C(=O)NC(C)CCc1ccccc1 (centres undefined)	100 (≈ 176 µM)	> 100	> 100
CCCCCCCCCCCC(=O)OCCNC(=O)c1ccccc1SSc1ccccc1C(=O)NCCOC(=O)CCCCCCCCCCC	6.25 (≈ 8.26 µM)	100 (≈ 132 µM)	25 (≈ 33 µM)
CC(O)Cn1sc2ccccc2c1=O (centres undefined)	12.5 (≈ 59.7 µM)	12.5 (≈ 59.7 µM)	25 (≈ 119 µM)
O=C(NCCO)c1ccccc1SSc1ccccc1C(=O)NCCO	6.25 (≈ 15.9 µM)	25 (≈ 63.7 µM)	25 (≈ 63.7 µM)
O=C(NCc1ccco1)c1ccccc1SSc1ccccc1C(=O)NCc1ccco1	25 (≈ 53.8 µM)	25 (≈ 53.8 µM)	25 (≈ 53.8 µM)
CCC(CO)NC(=O)c1ccccc1SSc1ccccc1C(=O)NC(CC)CO (centres undefined)	12.5 (≈ 27.9 µM)	25 (≈ 55.7 µM)	25 (≈ 55.7 µM)
CCOCCCNC(=O)c1ccccc1SSc1ccccc1C(=O)NCCCOCC	1.56 (≈ 3.27 µM)	12.5 (≈ 26.2 µM)	12.5 (≈ 26.2 µM)
CCOC(=O)c1ccc(NC(=O)c2ccccc2SSc2ccccc2C(=O)Nc2ccc(C(=O)OCC)cc2)cc1	3.13 (≈ 5.21 µM)	25 (≈ 41.6 µM)	25 (≈ 41.6 µM)
CN1CCCN(C(=O)c2ccccc2SSc2ccccc2C(=O)N2CCCN(C)CC2)CC1	> 100	> 100	> 100
CCOC(CN1CCN(C(=O)c2ccccc2SSc2ccccc2C(=O)N2CCN(CC(OCC)c3ccccc3)CC2)CC1)c1ccccc1 (centres undefined)	> 100	> 100	> 100
CO[C@H]1/C=C/O[C@@]2(C)Oc3c(C)c(O)c4c(O)c(c(/C=N/N5CCN(C)CC5)c(O)c4c3C2=O)NC(=O)/C(C)=C\C=C\[C@H](C)[C@H](O)[C@@H](C)[C@@H](O)[C@@H](C)[C@H](OC(C)=O)[C@@H]1C [RIFAMPIN]	0.05 (≈ 0.0608 µM)	0.2 (≈ 0.243 µM)	0.05 (≈ 0.0608 µM)
CCCCCC(=O)OCCCNC(=O)c1ccccc1SSc1ccccc1C(=O)NCCCOC(=O)CCCCC	3.13 (≈ 5.07 µM)	12.5 (≈ 20.3 µM)	0.39 (≈ 0.632 µM)
O=C(NCC(O)c1ccccc1)c1ccccc1SSc1ccccc1C(=O)NCC(O)c1ccccc1 (centres undefined)	100 (≈ 184 µM)	> 100	100 (≈ 184 µM)

Structure (SMILES)	MIC [1] [µg/mL]	MIC [2] [µg/mL]	MIC (Mycobacterium kansasii) [µg/mL]
O=C(Nc1ccc(Br)c2ccccc12)c1ccccc1SSc1ccccc1C(=O)Nc1ccc(Br)c2ccccc12	12.5 (≈ 17.5 µM)	> 100	50 (≈ 70 µM)
O=C(Nc1cccc([N+](=O)[O-])c1)c1ccccc1SSc1ccccc1C(=O)Nc1cccc([N+](=O)[O-])c1	100 (≈ 183 µM)	> 100	> 100
CCCCCCCCCCCCNC(=O)c1ccccc1SSc1ccccc1C(=O)NCCCCCCCCCCCC	3.13 (≈ 4.88 µM)	50 (≈ 78 µM)	25 (≈ 39 µM)
O=c1c2ccccc2sn1CCO	12.5 (≈ 64 µM)	12.5 (≈ 64 µM)	25 (≈ 128 µM)
O=C(NCCCCO)c1ccccc1SSc1ccccc1C(=O)NCCCCO	6.25 (≈ 13.9 µM)	25 (≈ 55.7 µM)	25 (≈ 55.7 µM)
CCOc1ccc2nc(NC(=O)c3ccccc3SSc3ccccc3C(=O)Nc3nc4ccc(OCC)cc4s3)sc2c1	> 100	> 100	> 100
CCCCc1ccc(NC(=O)c2ccccc2SSc2ccccc2C(=O)Nc2ccc(CCCC)cc2)cc1	0.78 (≈ 1.37 µM)	12.5 (≈ 22 µM)	12.5 (≈ 22 µM)
O=C(Nc1ccc(Cl)c2ccccc12)c1ccccc1SSc1ccccc1C(=O)Nc1ccc(Cl)c2ccccc12	12.5 (≈ 20 µM)	> 100	50 (≈ 79.9 µM)
O=C1c2ccccc2S(=O)(=O)N1CO	> 100	100 (≈ 469 µM)	> 100
O=C(Nc1cccc(Cl)c1)c1ccccc1SSc1ccccc1C(=O)Nc1cccc(Cl)c1	3.13 (≈ 5.96 µM)	25 (≈ 47.6 µM)	12.5 (≈ 23.8 µM)
CCCCCCCCCCCCCCCCCCNC(=O)c1ccccc1SSc1ccccc1C(=O)NCCCCCCCCCCCCCCCCCC	100 (≈ 124 µM)	> 100	> 100
CCCC(=O)OCCCNC(=O)c1ccccc1SSc1ccccc1C(=O)NCCCOC(=O)CCC	6.25 (≈ 11.1 µM)	25 (≈ 44.6 µM)	6.25 (≈ 11.1 µM)
O=C(c1ccccc1SSc1ccccc1C(=O)N(c1ccccc1)c1ccccc1)N(c1ccccc1)c1ccccc1	> 100	> 100	> 100
O=c1c2ccccc2sn1CO	12.5 (≈ 69 µM)	12.5 (≈ 69 µM)	12.5 (≈ 69 µM)
O=C(NCc1cccc2ccccc12)c1ccccc1SSc1ccccc1C(=O)NCc1cccc2ccccc12	> 100	> 100	> 100
CN1CCN(C(=O)c2ccccc2SSc2ccccc2C(=O)N2CCN(C)CC2)CC1.Cl.Cl	100	> 100	> 100
Cl.Cl.O=C(c1ccccc1SSc1ccccc1C(=O)N1CCN(C(c2ccccc2)c2ccccc2)CC1)N1CCN(C(c2ccccc2)c2ccccc2)CC1	> 100	> 100	> 100
O=C(NCO)c1ccccc1SSc1ccccc1C(=O)NCO	6.25 (≈ 17.1 µM)	25 (≈ 68.6 µM)	25 (≈ 68.6 µM)
O=C(Nc1ccc2ccccc2c1)c1ccccc1SSc1ccccc1C(=O)Nc1ccc2ccccc2c1	1.56 (≈ 2.8 µM)	6.25 (≈ 11.2 µM)	6.25 (≈ 11.2 µM)
CC(O)CNC(=O)c1ccccc1SSc1ccccc1C(=O)NCC(C)O (centres undefined)	1.56 (≈ 3.71 µM)	25 (≈ 59.4 µM)	25 (≈ 59.4 µM)
O=C(c1ccccc1SSc1ccccc1C(=O)N1CCOCC1)N1CCOCC1	12.5 (≈ 28.1 µM)	> 100	> 100

Structure (SMILES)	MIC [1] [µg/mL]	MIC [2] [µg/mL]	MIC (Mycobacterium kansasii) [µg/mL]
CCCCCCCCCCCCCCCC(=O)OCCCNC(=O)c1ccccc1SSc1ccccc1C(=O)NCCCOC(=O)CCCCCCCCCCCCCCC	50 (≈ 55.7 µM)	> 100	100 (≈ 111 µM)
COCCNC(=O)c1ccccc1SSc1ccccc1C(=O)NCCOC	6.25 (≈ 14.9 µM)	12.5 (≈ 29.7 µM)	12.5 (≈ 29.7 µM)
O=C(NCC(O)c1ccc(O)c(O)c1)c1ccccc1SSc1ccccc1C(=O)NCC(O)c1ccc(O)c(O)c1 (centres undefined)	100 (≈ 164 µM)	> 100	> 100
CC(O)CNC(=O)c1ccc(SSc2ccc(C(=O)NCC(C)O)cc2)cc1 (centres undefined)	100 (≈ 238 µM)	> 100	> 100
O=C(NCCNCCO)c1ccccc1SSc1ccccc1C(=O)NCCNCCO	25 (≈ 52.2 µM)	> 100	> 100
CCCCCCCCCC(=O)OCCCNC(=O)c1ccccc1SSc1ccccc1C(=O)NCCCOC(=O)CCCCCCCCC	0.39 (≈ 0.535 µM)	12.5 (≈ 17.1 µM)	0.39 (≈ 0.535 µM)
CC(C)(CO)NC(=O)c1ccccc1SSc1ccccc1C(=O)NC(C)(C)CO	12.5 (≈ 27.9 µM)	12.5 (≈ 27.9 µM)	12.5 (≈ 27.9 µM)
O=C(Nc1cccc2cccnc12)c1ccccc1SSc1ccccc1C(=O)Nc1cccc2cccnc12	25 (≈ 44.7 µM)	> 100	100 (≈ 179 µM)
CN[C@@H]1[C@H](O[C@H]2[C@H](O[C@H]3[C@H](O)[C@@H](O)[C@H](N=C(N)N)[C@@H](O)[C@@H]3N=C(N)N)O[C@@H](C)[C@]2(O)C=O)O[C@@H](CO)[C@H](O[C@@H]2O[C@H](CO)[C@@H](O)[C@H](O)[C@@H]2O)[C@H]1O	0.78 (≈ 1.05 µM)	12.5 (≈ 16.8 µM)	3.13 (≈ 4.21 µM)
Cl.Cl.O=C(NCC1CCNCC1)c1ccccc1SSc1ccccc1C(=O)NCC1CCNCC1	100	> 100	> 100
CCCCC(CC)CNC(=O)c1ccccc1SSc1ccccc1C(=O)NCC(CC)CCCC (centres undefined)	1.56 (≈ 2.95 µM)	50 (≈ 94.5 µM)	3.13 (≈ 5.92 µM)
NC[C@H]1O[C@H](O[C@H]2[C@H](O)[C@@H](O[C@H]3O[C@H](CO)[C@@H](O)[C@H](N)[C@H]3O)[C@H](N)C[C@@H]2N)[C@H](O)[C@@H](O)[C@@H]1O [KANAMYCIN]	3.13 (≈ 6.46 µM)	6.25 (≈ 12.9 µM)	25 (≈ 51.6 µM)
CC[C@@H](CO)NCCN[C@@H](CC)CO [ETHAMBUTOL]	0.78 (≈ 3.82 µM)	12.5 (≈ 61.2 µM)	12.5 (≈ 61.2 µM)
CCCCCCCCCCCCCCCC(=O)OC(C)CNC(=O)c1ccccc1SSc1ccccc1C(=O)NCC(C)OC(=O)CCCCCCCCCCCCCCC (centres undefined)	25 (≈ 27.9 µM)	> 100	> 100
NNC(=O)c1ccncc1 [ISONIAZID]	0.05 (≈ 0.365 µM)	6.25 (≈ 45.6 µM)	1.56 (≈ 11.4 µM)
O=C(NC1CCCCC1)c1ccccc1SSc1ccccc1C(=O)NC1CCCCC1	12.5 (≈ 26.7 µM)	> 100	100 (≈ 213 µM)
CC(=O)OCCCNC(=O)c1ccccc1SSc1ccccc1C(=O)NCCCOC(C)=O	12.5 (≈ 24.8 µM)	25 (≈ 49.5 µM)	25 (≈ 49.5 µM)
O=C(Nc1cccc(C(F)(F)F)c1)c1ccccc1SSc1ccccc1C(=O)Nc1cccc(C(F)(F)F)c1	12.5 (≈ 21.1 µM)	25 (≈ 42.2 µM)	25 (≈ 42.2 µM)
CCCCN(CCCC)C(=O)c1ccccc1SSc1ccccc1C(=O)N(CCCC)CCCC	6.25 (≈ 11.8 µM)	25 (≈ 47.3 µM)	25 (≈ 47.3 µM)
NC(=O)c1ccccc1SSc1ccccc1C(N)=O	12.5 (≈ 41.1 µM)	25 (≈ 82.1 µM)	25 (≈ 82.1 µM)
O=C(c1ccccc1SSc1ccccc1C(=O)N1C(=O)c2ccccc2C1=O)N1C(=O)c2ccccc2C1=O	> 100	> 100	> 100
